Results as given in BindingDB's records for doi:10.1016/j.bmcl.2004.07.050 (University of Georgia, 2004).

Molecular target: Integrase (HIV-1)
Test: Inhibitory activity against strand transfer in wild-type HIV-1 integrase was determined using 21-mer oligonucleotide substrate

SMILES | IC50 [µM]
Nc1ncnc2c1ncn2C1CC(OP(=O)(O)OCC2OCC(n3cnc4c(N)ncnc43)C2O)C(COP(=O)(O)O)O1 (configuration not stated) [Phosphoric acid 4-(6-amino-purin-9-yl)-3-hydroxy-tetrahydro-furan-2-ylmethyl ester 5-(6-amino-purin-9-yl)-2-phosphonooxymethyl-tetrahydro-furan-3-yl ester] | 41
Nc1ccn(C2COC(COP(=O)(O)OC3CC(n4cnc5c(N)ncnc54)OC3COP(=O)(O)O)C2O)c(=O)n1 (configuration not stated) [[4-(4-amino-2-oxo-1,2-dihydropyrimidin-1-yl)-3-hydroxyoxolan-2-yl]methyl [5-(6-amino-9H-purin-9-yl)-2-[(phosphonatooxy)methyl]oxolan-3-yl] phosphate] | 65
